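Where inhibition never reached the appropriate level, the endpoint shown equals the highest concentration tested. Otherwise, values were interpolated linearly from a five-concentration, 48-hour dose response in 96-well plates. Here, GI50 denotes the concentration required for 50% inhibition of growth. Definition used: TGI = concentration required for complete inhibition of growth.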

The record followed here is PubChem BioAssay (NCI).

Common to all, as to test: NCI-60 cell line screen, 48 h
The test system of assay [1] is A498 renal.
Assay [2] has as its system SW-620 colon.
Assay [3] deals with HCC-2998 colon.
Assay [4] concerns OVCAR-8 ovarian.
Assay [5] relates to HL-60(TB) leukemia.
In assay [6] the test system is MCF7 breast.
Assay [7] has as its system NCI-H23 lung.
For assay [8], the system named is UACC-62 melanoma.
Assay [9] deals with SNB-19 CNS.
Assay [10] deals with A549 NSCLC.

Consider `O=C(Nc1cccc2[nH]c(C(F)(F)F)nc12)c1cc(Cl)ccc1Cl`, for which the GI50 was 1.63 µM in assay [1]; 3.6 µM in assay [2]; 3.87 µM in assay [3]; 3.68 µM in assay [4]; 2.87 µM in [5]; 2.81 µM in assay [6]. Besides, the GI50 in assay [7] is 2.81 µM; in assay [8] it was 3.47 µM; in assay [9], 3.72 µM; in assay [10], 3.45 µM. Also, the TGI in [1] worked out at 6.19 µM; in [2] it was 14.8 µM; in [3], 15.8 µM; in assay [4], 31.6 µM; in assay [5], 7.53 µM; in assay [6], 49.7 µM. The TGI in assay [7] is 7.78 µM; in [8], 16.1 µM; in [9], > 100 µM; in assay [10], > 100 µM.

Take `COc1ccc(-c2cnnn2-c2nonc2-n2cccc2)cc1OC`: the GI50 in assay [1] was 2.95 µM; in assay [2], 3.61 µM; in assay [3] it was 5.53 µM; in assay [4], 5.29 µM; in [5], 3.09 µM; in assay [6], 3.17 µM. Moreover, the GI50 was 4.09 µM in [7], 5.42 µM in [8], 13.2 µM in assay [9] and 4.15 µM in assay [10]. Also, the TGI is 23 µM in [1]; > 100 µM in [2]; 37.7 µM in [3]; > 100 µM in assay [4]; 15.4 µM in assay [5]; > 100 µM in assay [6]. In addition, the TGI in [7], in assay [8], in assay [9] and in assay [10] was > 100 µM in each case.

As for `COc1cc([C@@H]2c3cc4c(cc3[C@H](OC(C)=O)[C@H]3COC(=O)[C@@H]23)OCO4)cc(OC)c1OC`, the GI50 in assay [1] is 0.175 µM; in assay [2], 0.36 µM; in assay [3] it was 0.285 µM; in [4] it was 0.469 µM; in [5], 0.235 µM; in assay [6], 0.334 µM. Besides, the GI50 in [7] was 0.333 µM; in assay [8], 0.405 µM; in [9], 0.393 µM; in assay [10], 0.463 µM. The TGI in [1] was 0.583 µM; in assay [2], > 100 µM; in assay [4], > 100 µM; in assay [6], > 100 µM; in [8] it was > 100 µM; in [9] it was > 100 µM. In assay [10], the TGI is > 100 µM.

Consider `ClCc1cccc(Cn2cnc3c(Cl)nc(Cl)nc32)c1`, for which the GI50 in assay [1] is 2.42 µM; in assay [2], 1.57 µM; in assay [3], 1.61 µM; in assay [4] it was 1.81 µM; in assay [5], 0.642 µM; in [6] it was 2.04 µM. In addition, the GI50 in assay [7] is 2.14 µM; in assay [8], 1.84 µM; in assay [9] it was 1.96 µM; in assay [10], 3.08 µM. Besides, the TGI in [1] is 6.53 µM; in assay [2], 3.5 µM; in [3], 3.15 µM; in [4], 3.51 µM; in assay [5], > 100 µM; in assay [6], 6.4 µM. For the same compound, the TGI in assay [7] was 5.09 µM; in assay [8], 3.44 µM; in [9], 4.17 µM; in assay [10], 9.89 µM.

As to `CC(=O)c1ccc2c(c1)N(CCCN1CCN(CCO)CC1)c1ccccc1S2`, the GI50 in [1] is 1.55 µM; in [2], 1.82 µM; in assay [3], 1.71 µM; in assay [4], 3.34 µM; in [5], 2.12 µM; in assay [6], 1.78 µM. Besides, the GI50 in [7] is 5.68 µM; in assay [8], 1.88 µM; in [9], 2.44 µM; in [10], 3.3 µM. Further, the TGI in assay [1] is 3.91 µM; in assay [2], 3.61 µM; in assay [3] it was 3.2 µM; in assay [4], 10.5 µM; in assay [5] it was 4.83 µM; in [6] it was 3.52 µM. Moreover, the TGI in [7] is 18.9 µM; in assay [8], 3.83 µM; in assay [9] it was 6.97 µM; in assay [10], 11.5 µM.

In the case of `CN(C)N1C(=O)SCC(c2ccccc2)(c2ccccc2)C1=O`, the TGI in assay [1], in assay [2], in [3], in [4], in assay [5] and in assay [6] was > 100 µM in each case. Also, the TGI in assay [7], in [8], in assay [9] and in assay [10] was > 100 µM throughout.

Take `COc1cc(C2=NN(C(C)=O)C(c3cc(OC)c(OC)c(OC)c3)C2)ccc1O` (configuration not stated): the GI50 is 0.26 µM in assay [1]; 0.296 µM in assay [2]; 0.539 µM in assay [3]; 0.619 µM in [4]; 0.182 µM in assay [5]; 0.276 µM in assay [6]. In addition, the GI50 is 0.51 µM in [7], 0.471 µM in assay [8], 0.491 µM in assay [9] and 0.579 µM in [10]. For the same compound, the TGI in assay [1] is 7.52 µM; in [2], > 100 µM; in assay [3], > 100 µM; in assay [4], > 100 µM; in assay [5] it was 0.514 µM; in assay [6], > 100 µM. In addition, the TGI in assay [7], in [8], in [9] and in assay [10] was > 100 µM each time.

As for `c1ccc(-c2nc3n(c2-c2ccc4c(c2)OCO4)CCC3)nc1`, the GI50 in [1] is 5.76 µM; in assay [2], 8.47 µM; in assay [3], 10.4 µM; in assay [4], 6.34 µM; in assay [5] it was 2.56 µM; in [6], 7.89 µM. Further, the GI50 was 9.59 µM in [7], 5.31 µM in assay [8], 8.74 µM in assay [9] and 5.88 µM in assay [10]. The TGI is 20.6 µM in assay [1]; > 25 µM in assay [2]; > 25 µM in assay [3]; > 25 µM in assay [4]; 10.7 µM in [5]; > 21.3 µM in assay [6]. For the same compound, the TGI was > 25 µM in assay [7], 16.2 µM in assay [8], > 25 µM in assay [9] and > 25 µM in assay [10].

As for `N=c1ccc2nc3ccc(N)cc3sc-2c1`, the GI50 was 26.2 µM in assay [1]; 3.92 µM in assay [2]; 6.82 µM in [3]; 3.69 µM in assay [4]; 1.9 µM in assay [5]; 3.5 µM in assay [6]. In addition, the GI50 in assay [7] is 2.77 µM; in assay [8], 2.93 µM; in [9], 3.17 µM; in [10] it was 3.43 µM. Also, the TGI in assay [1] is > 100 µM; in [2], 23.5 µM; in assay [3], 97.7 µM; in assay [4], 14 µM; in [5], 20.8 µM; in assay [6] it was 13.1 µM. Further, the TGI was 14.3 µM in [7], 8.38 µM in [8], 14.9 µM in [9] and > 100 µM in assay [10].

Take `O=C(CC1(O)C(=O)Nc2ccc(F)cc21)c1ccc(C(=O)NCC2CCC3(CC2)OOC2(CCCCC2)OO3)cc1` (configuration not stated): the GI50 was 13.3 µM in [1]; 7.72 µM in assay [2]; 14.6 µM in [3]; 6.3 µM in assay [4]; 1.43 µM in assay [5]; 8.23 µM in assay [6]. In addition, the GI50 in assay [7] is 3.62 µM; in assay [8], 12.2 µM; in assay [9], 14.8 µM; in assay [10] it was 2.49 µM. Besides, the TGI in [1] was 29.4 µM; in [2] it was 27.4 µM; in [3], 30 µM; in assay [4] it was 35.8 µM; in assay [5], 3.46 µM; in [6] it was 29 µM. In addition, the TGI in assay [7] was determined as 19.9 µM; in assay [8], 29 µM; in assay [9], 36.5 µM; in assay [10], 5.81 µM.
